Results reported in publication PMC12582325 (Proceedings of the National Academy of Sciences of the …, 2025).
Several values for one entry are separate records, joined by “and”; a condition that tells them apart may be missing. Equal entries are not always repeated. Where two headings read alike, the source gives them in different places. Where a SMILES comes first, the peptide text is derived from it.

Columns and labels:
Bc.Ste2 [1] = type: cell-based, Botrytis cinerea; conditions: 0.0005 μM Bc pheromone in combination with 10 μM peptide; four biological replicates; Fig. 2G
B. bassiana = type: cell-based, Beauveria bassiana; conditions: 20 hours
[2] = test system: F. oxysporum microconidia; assay: Germination of F. oxysporum microconidia; type: cell-based, Fusarium oxysporum f. sp. lycopersici 4287; set-up: Germination of F. oxysporum microconidia (data of Sup.Fig.10): unit not given here; conditions: for Germination of F. oxysporum microconidia (data of Sup.Fig.10): 400 μM pheromone, 13 h, at least 300 spores counted
Procedure: For F. oxysporum microconidia production, the strain was grown for 3 to 4 d in liquid potato dextrose broth (PDB) at 28 °C and 170 rpm. Germination media ([10]) was used for assessing the spore germination. RE was prepared by removing 2-wk-old tomato plants from vermiculite and washing the roots to remove any adhering substrates ([11]).
Supplementary Figure 10. Germination of F. oxysporum microconidia after 13 h of incubation in Germination Media at a cell density of […] microconidia/mL. The assay was performed with 400 μM of pheromone. All points represent the average of three biological replicates in which at least 300 spores were counted. Statistical significance was determined through one-way analysis of variance (ANOVA) with Dunnett’s multiple comparisons (✱p ≤ 0.05).

F. oxysporum germ tubes = conditions: gradient of 400 μM pheromone against the solvent (50% methanol); 13 h; water-agar; three biological replicates; Fig. 5A
Procedure: For the B. bassiana and F. oxysporum chemotropism assay and plant infection assays the pheromones were dissolved in 50% (v/v) MeOH to reach a concentration of 4,000 μM.
Fungal chemotropism was conducted as previously described ([11]). For each compound or combination of compounds tested, 300 hyphal tips were scored. All experiments were performed in three biological replicates.

Sc Ste2 = target: T1, Sc Ste2 (Saccharomyces cerevisiae, UniProt D6VTK4); type: cell-based
T1 construct: The native Sc system and an empty construct were added as positive and negative controls; endogenous in cells; host or cells: Saccharomyces cerevisiae wild-type control strains GEN18 (MATa) and GEN27 (MATα)
T1 sequence (D6VTK4 1-431): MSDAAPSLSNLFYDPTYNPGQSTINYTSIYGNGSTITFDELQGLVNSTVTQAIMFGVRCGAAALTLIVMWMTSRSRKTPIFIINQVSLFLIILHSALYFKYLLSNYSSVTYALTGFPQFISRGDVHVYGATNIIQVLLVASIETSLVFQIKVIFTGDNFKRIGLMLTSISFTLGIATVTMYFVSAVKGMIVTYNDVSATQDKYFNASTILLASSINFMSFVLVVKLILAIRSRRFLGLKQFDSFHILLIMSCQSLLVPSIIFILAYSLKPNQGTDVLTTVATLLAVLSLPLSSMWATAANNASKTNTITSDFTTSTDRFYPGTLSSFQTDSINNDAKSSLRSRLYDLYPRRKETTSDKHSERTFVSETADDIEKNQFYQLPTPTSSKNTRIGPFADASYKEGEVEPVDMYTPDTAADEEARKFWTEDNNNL

Ca.Ste2 = type: cell-based, Candida albicans
Fg.Ste2 [3] = type: cell-based, Fusarium graminearum
Fo.Ste2 [4] = type: cell-based, Fusarium oxysporum
Bb.Ste2 [5] = type: cell-based, Beauveria bassiana
Hj Ste2 GPCR (Hj.Hpr2) = type: cell-based, Hypocrea jecorina
Bc.Ste2 [6] = type: cell-based, Botrytis cinerea
Mo Ste2 GPCR = type: cell-based, Magnaporthe oryzae
Nc Ste2 GPCR = type: cell-based, Neurospora crassa
[7] = test system: empty (strain lacking a GPCR); type: cell-based, Saccharomyces cerevisiae
Hj.Hpr2 = type: cell-based, Hypocrea jecorina
Fg.Ste2 [8] = type: cell-based, Fusarium graminearum; remark: listed apart in the source
Bb.Ste2 [9] = type: cell-based, Beauveria bassiana; remark: listed apart in the source
Bc.Ste2 [10] = type: cell-based, Botrytis cinerea; remark: listed apart in the source
Fo.Ste2 [11] = type: cell-based, Fusarium oxysporum; remark: listed apart in the source
Fg.Ste2 [12] = conditions: SC-AS/Urea compared to SC media with ammonium sulfate alone
Bb.Ste2 [13] = type: cell-based, Beauveria bassiana; remark: listed apart in the source
[14] = test system: no_GPCR (negative control lacking a GPCR); type: cell-based, Saccharomyces cerevisiae; conditions: SC-AS/Urea compared to SC media with ammonium sulfate alone
Fo.Ste2 [15] = type: cell-based, Fusarium oxysporum; remark: listed apart in the source
[16] = Fig. 1D mating matrix, pheromone secreted by MATa strain, GPCR in MATα strain, deep well plate, 20 h coculture, three technical plating replicates
[17] = Fig. 1D mating matrix, pheromone secreted by MATa strain, MATα strain lacking a GPCR (empty), deep well plate, 20 h coculture

Which “Effect on activation of Bc.Ste2 by Bc pheromone, in words” value (Bc.Ste2 [1]) does the source give for WRWPCCWGQT [Scrambled] here?
Its value is “do not differ significantly from Bc alone”.

And the “Chemotropic response in Bb germ tubes” value (B. bassiana)?
The value was “did not”.

What about the “Germination of F. oxysporum microconidia (data of Sup.Fig.10)” value (“Germination of F. oxysporum microconidia” for short) ([2]; biological replicate 1 (first line)) of the same compound?
The value was 53,95.

And the “Germination of F. oxysporum microconidia” value ([2]; biological replicate 2 (second line))?
Its value is 33,33.

And the “Germination of F. oxysporum microconidia” value ([2]; biological replicate 3 (third line))?
Its value is 27,4.

What about the “Mean Diff, Solvent vs. peptide” value ([2]; Sup.Fig.10, Dunnett's multiple comparisons test, n = 3) of the same compound?
The value was 5,543.

And the “Mean 2 (peptide), germination” value ([2]; Sup.Fig.10, Solvent control mean 43,77, mean of n = 3)?
Its value is 38,23.

And the “Chemotropic response in F. oxysporum germ tubes” value (F. oxysporum germ tubes)?
The value was “did not”.

How did the “Diploid frequency (%)” value (Sc Ste2) turn out when “WCYRIGEPCW [Hj, alpha pheromone of Hypocrea jecorina (Trichoderma reseei)]” was run?
Its value is 0.0%.

And the “Diploid frequency (%)” value (Ca.Ste2)?
The value was 0.1%.

And the “Diploid frequency (%)” value (Fg.Ste2 [3])?
The value was 0.0%.

What about the “Diploid frequency (%)” value (Fo.Ste2 [4]) of the same compound?
Its value is 0.0%.

What about the “Diploid frequency (%)” value (Bb.Ste2 [5]) of the same compound?
Its value is 4.9%.

What about the “Diploid frequency (%)” value (Hj Ste2 GPCR (Hj.Hpr2)) of the same compound?
Its value is 0.1%.

And the “diploid frequency (%), Plates, Hj” value (Hj Ste2 GPCR (Hj.Hpr2))?
Its value is 0.67% and 0.16% and 0.05% and 1.62% and 0.03% and 1.07% and 0.1% and 0.01%.

What about the “Diploid frequency (%)” value (Bc.Ste2 [6]) of the same compound?
Its value is 0.1%.

What about the “Diploid frequency (%)” value (Mo Ste2 GPCR) of the same compound?
The value was 0.1%.

And the “Diploid frequency (%)” value (Nc Ste2 GPCR)?
Its value is 0.1%.

What about the “Diploid frequency (%)” value [7] of the same compound?
The value was 0.1%.

What about the “Sup.Fig.7B - Hj, group mean” value (Hj.Hpr2; pH=6) of the same compound?
Its value is 0.1033.

What about the “Sup.Fig.7B - Hj, group mean” value (Hj.Hpr2; pH=7) of the same compound?
Its value is 0.03.

And the “qPCR, Hj + Hj” value (Hj.Hpr2; ph=7)?
Its value is 0.0033.

Which results are given for “WCIQSGQPCW [A3, Fg.Ste2 - Agonist candidate from the YPL1 pheromone library]”?
Sup.Fig.3A Fg.Ste2 biosensor response, group mean (Fg.Ste2 [8]; Control mean 1, mean of n = 4): 1.455; Activation of Fg.Ste2 biosensor, in words (Fg.Ste2 [8]; chemically synthesized pheromone): almost no effect

`CC(C)C[C@H](NC(=O)[C@H](CS)NC(=O)[C@@H](N)Cc1c[nH]c2ccccc12)C(=O)N[C@@H](CCCNC(=N)N)C(=O)N[C@H](C(=O)NCC(=O)N[C@@H](CCC(N)=O)C(=O)N1CCC[C@H]1C(=O)N[C@@H](CS)C(=O)N[C@@H](Cc1c[nH]c2ccccc12)C(=O)O)C(C)C` [A1] (H-WCLRVGQPCW-OH; N-terminus and C-terminus assumed) was tested. Which logEC50 (Bb.Ste2 [9]) did it give?
The logEC50 was -9.317.

With `CC(C)C[C@H](NC(=O)[C@H](CC(C)C)NC(=O)[C@H](CS)NC(=O)[C@@H](N)Cc1c[nH]c2ccccc12)C(=O)N[C@@H](CC(=O)O)C(=O)NCC(=O)N[C@@H](CCC(N)=O)C(=O)N1CCC[C@H]1C(=O)N[C@@H](CS)C(=O)N[C@@H](Cc1c[nH]c2ccccc12)C(=O)O` [A6] (H-WCLLDGQPCW-OH; N-terminus and C-terminus assumed) as the compound, how does the Hillslope (Bc.Ste2 [10]) read?
The Hillslope was 0.5567.

What about the logEC50 (Bc.Ste2 [10]) of the same compound?
The logEC50 was -8.01.

What about the “Sup.Fig.3A Bc.Ste2 biosensor response, group mean” value (Bc.Ste2 [10]; 10 μM) of the same compound?
Its value is 1.225.

`NCCCC[C@H](NC(=O)[C@H](CO)NC(=O)CNC(=O)[C@H](CS)NC(=O)[C@@H](N)Cc1c[nH]c2ccccc12)C(=O)NCC(=O)N[C@@H](CCC(N)=O)C(=O)N1CCC[C@H]1C(=O)N[C@@H](CS)C(=O)N[C@@H](Cc1c[nH]c2ccccc12)C(=O)O` [A2] (H-WCGSKGQPCW-OH; N-terminus and C-terminus assumed) was tested. Which “Activation of Bb.Ste2 biosensor, in words” value (Bb.Ste2 [9]) did it give?
The value was “higher EC50 values”.

And the Hillslope (Bb.Ste2 [9])?
Its Hillslope is 1.362.

And the logEC50 (Bb.Ste2 [9])?
Its logEC50 is -3.661.

Which “Effect on abundance of diploids with Fo.Ste2” value (Fo.Ste2 [11]) does the source give for `NC(N)=O` [Urea] here?
Its value is “did not affect”.

What about the “Fold decrease in the abundance of diploids with Fg.Ste2” value (Fg.Ste2 [12]) of the same compound?
The value was 0.8 fold.

What about the “Increase of diploids containing Bb.Ste2” value (Bb.Ste2 [13]) of the same compound?
The value was “fourfold”.

What about the “Fold increase of diploids containing Hj.Hpr2” value (Hj.Hpr2) of the same compound?
The value was 20 fold.

What about the “Effect on abundance of diploids with the control strain no_GPCR” value [14] of the same compound?
The value was “did not affect”.

What does the source list for `CC(C)C[C@H](NC(=O)[C@H](CS)NC(=O)[C@@H](N)Cc1c[nH]c2ccccc12)C(=O)N[C@@H](Cc1c[nH]c2ccccc12)C(=O)N[C@@H](CCCNC(=N)N)C(=O)NCC(=O)N[C@@H](CCC(N)=O)C(=O)N1CCC[C@H]1C(=O)N[C@@H](CS)C(=O)N[C@@H](Cc1c[nH]c2ccccc12)C(=O)O` [A5] (H-WCLWRGQPCW-OH; N-terminus assumed)?
EC50 fold lower than that of the native Fo alpha pheromone (Fo.Ste2 [15]): at least 13 fold; logEC50 (Fo.Ste2 [15]): -8.637

Which “Diploid frequency (%)” value (Sc Ste2) does the source give for “QWCRIHGQSCW [Nc, alpha pheromone of Neurospora crassa]” here?
Its value is 0.0%.

And the “Diploid frequency (%)” value (Ca.Ste2)?
Its value is 0.0%.

What about the “Diploid frequency (%)” value (Fg.Ste2 [3]; [16]) of the same compound?
Its value is 0.0%.

What about the “Diploid frequency (%)” value (Fo.Ste2 [4]) of the same compound?
The value was 0.0%.

What about the “Diploid frequency (%)” value (Bb.Ste2 [5]; [16]) of the same compound?
The value was 0.0%.

And the “Diploid frequency (%)” value (Hj Ste2 GPCR (Hj.Hpr2))?
Its value is 0.0%.

What about the “Diploid frequency (%)” value (Bc.Ste2 [6]) of the same compound?
The value was 0.1%.

And the “Diploid frequency (%)” value (Mo Ste2 GPCR; [16])?
The value was 0.0%.

And the “Diploid frequency (%)” value (Nc Ste2 GPCR)?
The value was 2.8%.

And the “Diploid frequency (%)” value [7, 17]?
The value was 0.1%.

“WHWLQLKPGQPMY [Sc, alpha pheromone of Saccharomyces cerevisiae]” was tested. Which “Diploid frequency (%)” value (Sc Ste2) did it give?
The value was 90.9%.

And the “Diploid frequency (%)” value (Ca.Ste2)?
Its value is 0.0%.

What about the “Diploid frequency (%)” value (Fg.Ste2 [3]; [16]) of the same compound?
The value was 0.0%.

And the “Diploid frequency (%)” value (Fo.Ste2 [4])?
The value was 0.0%.

What about the “Diploid frequency (%)” value (Bb.Ste2 [5]; [16]) of the same compound?
Its value is 0.0%.

What about the “Diploid frequency (%)” value (Hj Ste2 GPCR (Hj.Hpr2)) of the same compound?
The value was 0.0%.

What about the “Diploid frequency (%)” value (Bc.Ste2 [6]) of the same compound?
Its value is 0.1%.

And the “Diploid frequency (%)” value (Mo Ste2 GPCR; [16])?
Its value is 0.2%.

What about the “Diploid frequency (%)” value (Nc Ste2 GPCR) of the same compound?
The value was 0.0%.

And the “Diploid frequency (%)” value [7, 17]?
Its value is 0.2%.
